Experimental data published in US9108983B2, “Pyrrole compounds, a process for their preparation and pharmaceutical compositions containing them” (LES LABORATOIRES SERVIER, priority 2013, dated 2015).
Structures can show the parent of a compound that is named as a salt. Where two headings read alike, the source gives them in different places.

Key:
[1] = test system: RS4;11 leukaemia tumour line; experiment: In vitro cytotoxicity (Microculture Tetrazolium Assay); assay type: cell-based; conditions: RS4;11 cells, exposed for 48 hours, cell viability, read-out: IC50 (nM) MTT RS4;11
Description: The cytotoxicity studies were carried out on the RS4;11 leukaemia tumour line.
The cells are distributed onto microplates and exposed to the test compounds for 48 hours.
The cell viability is then quantified by a colorimetric assay, the Microculture Tetrazolium Assay (Cancer Res., 1987, 47, 939-942).

Bcl-2 protein = Bcl-2 protein (histag-Bcl-2, UniProtKB P10415) (Homo sapiens (Human), UniProt P10415); experiment: Inhibition of Bcl-2 by the fluorescence polarisation technique; assay type: binding; conditions: incubation for 2 hours, read-out: IC50 (nM) Bcl-2 FP
Description: The fluorescence polarisation tests were carried out on microplates (384 wells). The Bcl-2 protein, labelled (histag-Bcl-2 such that Bcl-2 corresponds to the UniProtKB® primary accession number: P10415), at a final concentration of 2.50×10^−8 M, is mixed with a fluorescent peptide (Fluorescein-[…]), at a final concentration of 1.00×10^−8 M in a buffer solution (Hepes 10 mM, NaCl 150 mM, Tween20 0.05%, pH 7.4), in the presence or absence of increasing concentrations of test compounds. After incubation for 2 hours, the fluorescence polarisation is measured.

Bcl-2 protein, sequence (P10415 whole entry): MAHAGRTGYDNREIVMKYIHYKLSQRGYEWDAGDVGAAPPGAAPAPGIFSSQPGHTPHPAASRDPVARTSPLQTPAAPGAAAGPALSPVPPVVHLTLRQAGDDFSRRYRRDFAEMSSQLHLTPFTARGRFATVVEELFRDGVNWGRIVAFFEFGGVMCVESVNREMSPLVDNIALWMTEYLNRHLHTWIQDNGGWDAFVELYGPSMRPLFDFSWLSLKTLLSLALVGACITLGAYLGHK

| Structure (SMILES) | IC50 ([1]; Homo sapiens, RS4-11, 48 h) [nM] | also measured |
| --- | --- | --- |
| Cc1c(C(=O)N(c2ccc(O)cc2)c2cnc3c(ccn3C)c2)cc(-c2cc3c(cc2C(=O)N2Cc4ccccc4C[C@H]2CN2CCN(C)CC2)OCO3)n1C [Example 69, N-(4-Hydroxyphenyl)-1,2-dimethyl-5-(6-{[(3S)-3-[(4-methylpiperazin-1-yl)methyl]-3,4-dihydroisoquinolin-2(1H)-yl]carbonyl}-1,3-benzodioxol-5-yl)-N-(1-methyl-1H-pyrrolo[2,3-b]pyridin-5-yl)-1H-pyrrole-3-carboxamide hydrochloride] | 3.68 | IC50 (Bcl-2 protein): 5.3 nM |
| Cl.[2H]C([2H])([2H])n1cc(N(C(=O)c2cc(-c3cc(F)ccc3C(=O)N3Cc4ccccc4C[C@H]3CN3CCOCC3)n(C)c2C)c2ccc(O)cc2)cn1 [Example 420, 5-(5-Fluoro-2-{[(3S)-3-(morpholin-4-ylmethyl)-3,4-dihydroisoquinolin-2(1H)-yl]carbonyl}phenyl)-N-(4-hydroxyphenyl)-1,2-dimethyl-N-[1-(trideuteriomethyl)-1H-pyrazol-4-yl]-1H-pyrrole-3-carboxamide hydrochloride] | 51.8 |  |
| Cc1c(N(C(=O)c2cc(-c3ccc(Cl)cc3C(=O)N3Cc4ccccc4C[C@H]3CN3CCOCC3)n(C)c2C)c2ccc(O)cc2)cc(C#N)n1C [Example 465, 5-(4-Chloro-2-{[(3S)-3-(morpholin-4-ylmethyl)-3,4-dihydroisoquinolin-2(1H)-yl]carbonyl}phenyl)-N-(5-cyano-1,2-dimethyl-1H-pyrrol-3-yl)-N-(4-hydroxyphenyl)-1,2-dimethyl-1H-pyrrole-3-carboxamide hydrochloride] | 50.6 |  |
| Cc1c(C(=O)N(c2ccc(O)cc2)c2cnc3c(ccn3C)c2)cc(-c2cc(Cl)ccc2C(=O)N2Cc3ccccc3CC2C(F)(F)F)n1C (stereo not drawn) [Example 430, 5-(5-Chloro-2-{[3-(trifluoromethyl)-3,4-dihydroisoquinolin-2(1H)-yl]-carbonyl}phenyl)-N-(4-hydroxyphenyl)-1,2-dimethyl-N-(1-methyl-1H-pyrrolo[2,3-b]-pyridin-5-yl)-1H-pyrrole-3-carboxamide] | 328 | IC50 (Bcl-2 protein): 19.9 nM |
| CN1CCN(C[C@@H]2Cc3ccccc3CN2C(=O)c2cc3c(cc2-c2cc(C(=O)N(c4ccc(O)cc4)c4ccc5c(ccn5C)c4)cn2C)OCO3)CC1 [Example 9, N-(4-Hydroxyphenyl)-1-methyl-N-(1-methyl-1H-indol-5-yl)-5-(6-{[(3S)-3-[(4-methylpiperazin-1-yl)methyl]-3,4-dihydroisoquinolin-2(1H)-yl]carbonyl}-1,3-benzodioxol-5-yl)-1H-pyrrole-3-carboxamide hydrochloride] | 87.5 | IC50 (Bcl-2 protein): 22.4 nM |
| Cc1c(C(=O)N(c2ccc(O)cc2)c2cccc(F)c2)cc(-c2cc(Cl)ccc2C(=O)N2Cc3ccccc3C[C@H]2CN2CCOCC2)n1C [Example 34, 5-(5-Chloro-2-{[(3S)-3-(morpholin-4-ylmethyl)-3,4-dihydroisoquinolin-2(1H)-yl]carbonyl}phenyl)-N-(3-fluorophenyl)-N-(4-hydroxyphenyl)-1,2-dimethyl-1H-pyrrole-3-carboxamide hydrochloride] | 47 | IC50 (Bcl-2 protein): 8.2 nM |
| Cc1c(N(C(=O)c2cc(-c3cc(Cl)ccc3C(=O)N3Cc4ccccc4C[C@H]3CN3CCOCC3)n(C)c2C)c2ccccc2)cc(C#N)n1C [Example 441, 5-(5-Chloro-2-{[(3S)-3-(morpholin-4-ylmethyl)-3,4-dihydroisoquinolin-2(1H)-yl]carbonyl}phenyl)-N-(5-cyano-1,2-dimethyl-1H-pyrrol-3-yl)-1,2-dimethyl-N-phenyl-1H-pyrrole-3-carboxamide hydrochloride] | 132 | IC50 (Bcl-2 protein): 3.5 nM |
| CCOc1ncc(N(C(=O)c2cc(-c3cc(F)ccc3C(=O)N3Cc4ccccc4C[C@H]3CN3CCOCC3)n(C)c2C)c2ccc(O)cc2)cn1 [Example 463, N-(2-Ethoxypyrimidin-5-yl)-5-(5-fluoro-2-{[(3S)-3-(morpholin-4-ylmethyl)-3,4-dihydroisoquinolin-2(1H)-yl]carbonyl}phenyl)-N-(4-hydroxyphenyl)-1,2-dimethyl-1H-pyrrole-3-carboxamide] | 40.8 |  |
| Cc1c(C(=O)N(c2ccc(O)cc2)c2cnn(C)c2)cc(-c2cc(F)ccc2C(=O)N2Cc3ccccc3C[C@H]2CN2CCOCC2)n1C [Example 67, 5-(5-Fluoro-2-{[(3S)-3-(morpholin-4-ylmethyl)-3,4-dihydroisoquinolin-2(1H)-yl]carbonyl}phenyl)-N-(4-hydroxyphenyl)-1,2-dimethyl-N-(1-methyl-1H-pyrazol-4-yl)-1H-pyrrole-3-carboxamide hydrochloride] | 98.6 |  |
| Cc1c(C(=O)N(c2ccccc2)c2ccc(O)cc2)cc(-c2cc(Cl)ccc2C(=O)N2Cc3ccccc3C[C@H]2COCCN(C)C)n1C [Example 60, 5-(5-Chloro-2-{[(3S)-3-{[2-(dimethylamino)ethoxy]methyl}-3,4-dihydroisoquinolin-2(1H)-yl]carbonyl}phenyl)-N-(4-hydroxyphenyl)-1,2-dimethyl-N-phenyl-1H-pyrrole-3-carboxamide hydrochloride] | 18.3 |  |
| Cc1c(C(=O)N(c2ccccc2)c2cnc3c(ccn3C)c2)cc(-c2cc(F)c(O)cc2C(=O)N2Cc3ccccc3C[C@H]2CN2CCOCC2)n1C [Example 443, 5-(5-Fluoro-4-hydroxy-2-{[(3S)-3-(morpholin-4-ylmethyl)-3,4-dihydroisoquinolin-2(1H)-yl]carbonyl}phenyl)-1,2-dimethyl-N-(1-methyl-1H-pyrrolo[2,3-b]pyridin-5-yl)-N-phenyl-1H-pyrrole-3-carboxamide] | 57.9 |  |
| Cc1c(N(C(=O)c2cc(-c3cc(Cl)ccc3C(=O)N3Cc4ccccc4C[C@H]3CN3CCOCC3)n(C)c2C)c2ccc(O)cc2)cc(C#N)n1C [Example 386, 5-(5-Chloro-2-{[(3S)-3-(morpholin-4-ylmethyl)-3,4-dihydroisoquinolin-2(1H)-yl]carbonyl}phenyl)-N-(5-cyano-1,2-dimethyl-1H-pyrrol-3-yl)-N-(4-hydroxyphenyl)-1,2-dimethyl-1H-pyrrole-3-carboxamide hydrochloride] |  | IC50 ([1]; Homo sapiens): 9.23 nM |
| Cc1c(C(=O)N(c2ccc(O)cc2)c2cnn(C)c2)cc(-c2ccc(Cl)cc2C(=O)N2Cc3ccccc3C[C@H]2CN2CCOCC2)n1C [Example 466, 5-(4-Chloro-2-{[(3S)-3-(morpholin-4-ylmethyl)-3,4-dihydroisoquinolin-2(1H)-yl]carbonyl}phenyl)-N-(4-hydroxyphenyl)-1,2-dimethyl-N-(1-methyl-1H-pyrazol-4-yl)-1H-pyrrole-3-carboxamide hydrochloride] | 493 |  |
| COc1ccc(N(C(=O)c2cc(-c3cc(Cl)ccc3C(=O)N3Cc4ccccc4C[C@H]3CN3CCOCC3)n(C)c2C)c2ccc(O)cc2)nc1C#N [Example 457, 5-(5-Chloro-2-{[(3S)-3-(morpholin-4-ylmethyl)-3,4-dihydroisoquinolin-2(1H)-yl]carbonyl}phenyl)-N-(6-cyano-5-methoxypyridin-2-yl)-N-(4-hydroxyphenyl)-1,2-dimethyl-1H-pyrrole-3-carboxamide hydrochloride] | 80.4 |  |
| CC(C)n1cc(C(=O)N(c2ccc(O)cc2)c2ccc3c(ccn3C)c2)cc1-c1cc(Cl)ccc1C(=O)N1Cc2ccccc2C[C@H]1CN1CCN(C)CC1 [Example 8] |  | IC50 [1]: 255 nM |
| Cn1cc(C(=O)N(c2ccccc2)c2ccccc2)cc1-c1ccccc1C(=O)N1Cc2ccccc2C[C@H]1CN [Example 2, 5-(2-{[(3S)-3-(Aminomethyl)-3,4-dihydroisoquinolin-2(1H)-yl]carbonyl}phenyl)-1-methyl-N,N-diphenyl-1H-pyrrole-3-carboxamide] | 1660 |  |
| Cl.[2H]C([2H])([2H])n1c(C#N)cc(N(C(=O)c2cc(-c3cc(Cl)ccc3C(=O)N3Cc4ccccc4C[C@H]3CN3CCOCC3)n(C)c2C)c2ccc(O)cc2)c1C [Example 449, 5-(5-Chloro-2-{[(3S)-3-(morpholin-4-ylmethyl)-3,4-dihydroisoquinolin-2(1H)-yl]carbonyl}phenyl)-N-[5-cyano-2-methyl-1-(trideuteriomethyl)-1H-pyrrol-3-yl]-N-(4-hydroxyphenyl)-1,2-dimethyl-1H-pyrrole-3-carboxamide hydrochloride] |  | IC50 ([1]; Homo sapiens): 11.9 nM |
| CN1CCN(C[C@@H]2Cc3ccccc3CN2C(=O)c2cc3c(cc2-c2cc(C(=O)N(c4ccc(O)cc4)c4ccc5[nH]ccc5c4)cn2C)OCO3)CC1 [Example 4, N-(4-Hydroxyphenyl)-N-(1H-indol-5-yl)-1-methyl-5-(6-{[(3S)-3-[(4-methylpiperazin-1-yl)methyl]-3,4-dihydroisoquinolin-2(1H)-yl]carbonyl}-1,3-benzodioxol-5-yl)-1H-pyrrole-3-carboxamide] | 231 |  |
| C[C@@H]1Cc2ccccc2CN1C(=O)c1cc2c(cc1-c1cc(C(=O)N(c3ccc(O)cc3)c3cnn(C)c3)c(CCN3CCOCC3)n1C)OCO2 [Example 81, N-(4-Hydroxyphenyl)-1-methyl-5-(6-{[(3R)-3-methyl-3,4-dihydroisoquinolin-2(1H)-yl]carbonyl}-1,3-benzodioxol-5-yl)-N-(1-methyl-1H-pyrazol-4-yl)-2-[2-(morpholin-4-yl)ethyl]-1H-pyrrole-3-carboxamide hydrochloride] | 249 |  |
